Reference: US20210009959A1, “METHODS FOR ENHANCING OSTEOGENIC DIFFERENTIATION USING VITAMIN D” (priority 2019, published 2021)

Legend:
Format in all cases: cell-based
[1] = system: human adipose stem cells (hASCs); assay: hASC proliferation (cell number) on BCP scaffold, static culture; settings: vs non-treated controls
Description: In one embodiment, a method of static culture of hASCs by pre-treatment with vitamin D3 (calcitriol) and attachment of hASCs to the scaffold used in one-step surgical procedure comprises the following steps. At one step, isolating hASCs as explained in FIG. 1. In an embodiment, the hASCs from three donors at passage 3 are used for further processing. As an optional step, the obtained hASCs are either or not incubated for a period of about 30 mins with low concentrated calcitriol of about 10 nM at room temperature. At next step, the calcitriol treated hASCs are washed twice with Phosphate Buffered Saline (PBS) to remove calcitriol. Further, the washed hASCs are centrifuged and resuspended in Dulbecco's Minimum Essential Medium (DMEM) without any supplements. At another step, the resuspended cells are seeded on the scaffold and allowed to attach to the scaffolds for a period of about 30 minutes. At next step, the scaffolds with attached cells are transferred to 12-well plates with Costar® Transwell® containers (Corning Life Sciences, Lowell, Mass., USA) containing expansion medium (DMEM) supplemented with 10% Fetal Clone I (FCI), antibiotics (1% penicillin/streptomycin/fungizone (PSF)), 50 μM ascorbic acid (Merck, Darmstadt, Germany), and 10 mM β-glycerol phosphate (Merck, Darmstadt, Germany) (PLGA/β-TCP). At next step, the hASCs seeded scaffolds are incubated at 5% CO2 in a humidified incubator at predefined temperature of about 37° C. for a period of about 3 weeks. The effect of 30 minutes pre-treatment with calcitriol on hASC proliferation is exemplarily illustrated in FIG. 4C. […] The 30 minutes pre-treatment with calcitriol increases the cell number at day 14 by 3.5-fold, and at day 21 by 2.6-fold. The continuous treatment of hASCs with calcitriol for 3 weeks increases the cell number only at day 14 by 1.7-fold, but not at day 21 compared to non-treated controls as shown in FIG. 4C. The results of hASC proliferation are expressed as CFU (in %) versus time (in days) and represent means±standard errors of the means of the colon forming unit counts (n=3), where p<0.0001.

[2] = system: human adipose stem cells (hASCs); assay: Metabolic activity / cell proliferation of hASCs in 3D PLGA/β-TCP scaffold, dynamic (perfusion bioreactor) and static (flask) culture
Description: (§1) In one embodiment, dynamic culture of pre-treated hASCs with calcitriol, using the modified perfusion bioreactor comprises the following steps. In one embodiment, the scaffolds are 3D PLGA/β-TCP. The modified perfusion bioreactor […] comprises five scaffolds, loaded with a total of 70 ml of culture medium as shown in FIG. 2. At another step, 30 ml of the culture medium is replaced twice a week for a total period of two weeks. At another step, the culture medium in the modified perfusion bioreactor 200 is distributed to the five scaffolds with the flow rate of about 5 ml/min using the peristaltic pump 202.
(§2) In one embodiment, the method of static culture of pre-treated hASCs is continued in a flask bioreactor with the same volume of culture medium utilized in the dynamic culture. Further, the methods of culturing the hASCs are divided into different groups. In one embodiment, the methods of culturing of hASCs are divided into four groups such as, static culture of non-treated hASCs, static culture of pre-treated hASCs with calcitriol, dynamic culture of non-treated hASCs and dynamic culture of pre-treated hASCs with calcitriol.
Referring to FIG. 9, the effects of dynamic pre-treated/non-treated hASCs versus static pre-treated/non-treated hASCs on metabolic activity or cell proliferation of hASCs is disclosed, where the pre-treated hASCs are seeded in 3D PLGA/β-TCP scaffold. In one embodiment, the hASCs are pre-treated with or without 10 nM calcitriol for 30 minutes and cultured in the modified perfusion bioreactor 200 (dynamic culture) and flask bioreactor (static culture). […] Also, the culturing groups are compared and there is no significant difference between the groups. However, the 14 days of dynamic culture of both non-treated hASCs and pre-treated hASCs increases cell proliferation by 1.1-fold relative to 7 days of culture.
In addition, alamarBlue assay, ALP assay, ALP staining, analysis of osteogenic and angiogenic gene expression and related protein content to evaluate the synergistic effects of flow-induced shear stress using a modified perfusion bioreactor and calcitriol pre-treatment are used for the examinations.

[3] = system: human adipose stem cells (hASCs); assay: ALP activity of hASCs in 3D PLGA/β-TCP scaffold, dynamic and static culture
Description: as §1, §2
Referring to FIG. 10, the effects of dynamic pre-treated/non-treated hASCs versus static pre-treated/non-treated hASCs on ALP activity of hASCs are disclosed, where the hASCs are seeded in 3D PLGA/β-TCP scaffold. In one embodiment, the hASCs are pre-treated with or without 10 nM calcitriol for 30 minutes and cultured in the modified perfusion bioreactor 200 (dynamic culture) and flask bioreactor (static culture). The ALP activity of hASCs after 7 days perfusion culture of pre-treated hASCs is increased by 9.2-fold compared to static culture of pre-treated hASCs, and the ALP activity of non-treated hASCs is increased by 10.3-fold compared to static culture of non-treated hASCs.
The 14 days of perfusion culture of non-treated hASCs increases ALP activity by 1.4-fold relative to static counterpart, and perfusion culture of pre-treated hASCs increases ALP activity by 2.2-fold relative to static culture of pre-treated hASCs. Moreover, calcitriol pre-treatment increases ALP activity of hASCs by 2.8-fold at day 7 and 1.3-fold at day 14 compared to non-treated hASCs in static condition. On the whole, the highest ALP activity is observed at day 7, which belongs to perfusion culture of pre-treated hASCs with calcitriol.

## C=C1/C(=C\C=C2/CCC[C@]3(C)[C@@H]([C@H](C)CCCC(C)(C)O)CC[C@@H]23)C[C@@H](O)C[C@@H]1O [calcitriol, 1,25-dihydroxyvitamin D3]
[1]; 30 min pre-treatment, day 14
  cell number, increase: 3.5 fold
[1]; 30 min pre-treatment, day 21
  cell number, increase: 2.6 fold
[1]; continuous treatment for 3 weeks, day 14
  cell number, increase: 1.7 fold
[1]; continuous treatment for 3 weeks, day 21
  cell number, increase: not at day 21
[2]; dynamic culture of pre-treated hASCs, 14 days relative to 7 days of culture
  cell proliferation, increase: 1.1 fold
[2]; dynamic culture of pre-treated hASCs, 14 days, relative to the first day
  cell proliferation, increase: 10.8 fold
[2]; dynamic culture of pre-treated hASCs, after 7 days, relative to the first day
  cell proliferation, increase: 9.9 fold
[2]; perfusion culture of pre-treated vs perfusion culture of non-treated hASCs, after 7 and 14 days
  cell proliferation: slightly decelerates
[2]; static culture of pre-treated hASCs (10 nM, 30 min), after 7 days, relative to the first day
  cell proliferation, increase: 10.6 fold
[2]; static culture of pre-treated hASCs, 14 days, relative to the first day
  cell proliferation, increase: 1.6 fold
[3]; 7 days, perfusion culture of pre-treated hASCs vs static culture of pre-treated hASCs
  ALP activity, increase: 9.2 fold
[3]; 7 days, perfusion culture of pre-treated vs perfusion culture of non-treated hASCs
  ALP activity, increase: 2.6 fold
[3]; 14 days, perfusion culture of pre-treated vs static culture of pre-treated hASCs
  ALP activity, increase: 2.2 fold
[3]; static condition, day 7, pre-treated vs non-treated hASCs
  ALP activity, increase: 2.8 fold
[3]; static condition, day 14, pre-treated vs non-treated hASCs
  ALP activity, increase: 1.3 fold
